Drawing on US12209091B2, “Isoindolinone derivatives as selective allosteric inhibitors of Egfr mutant cancers” (Hoffmann-La Roche Inc., priority 2018, dated 2025), this text covers IC50 for 14 molecules.

T1 sequence (P00533 25-1210 T790M/L858R): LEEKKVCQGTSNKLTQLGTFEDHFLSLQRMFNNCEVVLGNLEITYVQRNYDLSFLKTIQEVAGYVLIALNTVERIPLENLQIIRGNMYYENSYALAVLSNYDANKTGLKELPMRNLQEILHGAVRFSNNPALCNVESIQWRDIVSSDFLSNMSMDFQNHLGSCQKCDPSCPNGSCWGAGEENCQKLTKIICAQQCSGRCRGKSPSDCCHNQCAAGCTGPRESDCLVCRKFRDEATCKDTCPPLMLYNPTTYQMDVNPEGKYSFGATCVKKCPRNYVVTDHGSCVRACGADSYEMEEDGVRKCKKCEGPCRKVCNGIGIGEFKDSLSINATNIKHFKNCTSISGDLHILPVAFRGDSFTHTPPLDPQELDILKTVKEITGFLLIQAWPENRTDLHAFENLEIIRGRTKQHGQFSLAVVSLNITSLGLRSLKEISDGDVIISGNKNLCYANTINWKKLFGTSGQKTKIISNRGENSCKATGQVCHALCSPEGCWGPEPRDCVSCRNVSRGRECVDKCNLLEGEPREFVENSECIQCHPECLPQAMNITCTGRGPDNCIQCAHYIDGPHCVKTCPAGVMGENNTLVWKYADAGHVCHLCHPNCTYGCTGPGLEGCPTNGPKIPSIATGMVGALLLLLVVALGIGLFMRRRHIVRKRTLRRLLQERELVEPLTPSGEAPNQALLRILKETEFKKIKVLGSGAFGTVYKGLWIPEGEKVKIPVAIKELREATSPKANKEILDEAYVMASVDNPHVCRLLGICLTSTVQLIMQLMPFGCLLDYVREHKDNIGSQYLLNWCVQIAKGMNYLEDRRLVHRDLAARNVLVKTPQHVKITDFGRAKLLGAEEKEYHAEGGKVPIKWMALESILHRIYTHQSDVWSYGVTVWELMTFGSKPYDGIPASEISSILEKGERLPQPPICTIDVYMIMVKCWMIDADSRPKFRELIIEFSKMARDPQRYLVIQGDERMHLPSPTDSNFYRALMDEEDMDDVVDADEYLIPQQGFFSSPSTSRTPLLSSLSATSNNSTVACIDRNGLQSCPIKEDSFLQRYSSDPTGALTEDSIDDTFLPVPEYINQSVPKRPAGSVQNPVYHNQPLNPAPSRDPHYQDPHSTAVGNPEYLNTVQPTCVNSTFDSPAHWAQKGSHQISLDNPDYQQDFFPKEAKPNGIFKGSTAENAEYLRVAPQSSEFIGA

This assay addresses T1, Phospho EGFR TMLR (H1975 cells) (Homo sapiens, UniProt P00533, L858R/T790M).
T1 construct: H1975 cell line (CRL-5908; Lot BA70803) was obtained from American Type Culture Collection; host or cells: H1975
The experiment in a line: HTRF Phospho EGFR TMLR assay (cellular), H1975. It counts as cell-based. Conditions: H1975 cell line, 16 hours compound incubation, Phospho-EGFR HTRF readout. On the procedure: HTRF Phospho EGFR TMLR Assay (Cellular)
H1975 cell line (CRL-5908; Lot BA70803) was obtained from American Type Culture Collection (Manassas, VA, USA). Cells were maintained at 37° C., 5% CO2 in complete Media RPMI 1640 without phenol red containing 0.3 mg/ml glutamine, 100 IU/ml penicillin, and […] streptomycin (Gibco, 15140-122) supplemented with 10% fetal bovine serum (FBS, Gibco, 10091-148). Compounds were diluted into starving medium RPMI 1640 Media (Gibco, 11835-030) without phenol red containing 0.3 mg/ml glutamine, 100 IU/ml penicillin, and […] streptomycin (Gibco).
Cells were cultured for 24 h in a 384-well plate (Greiner Bio-One, Nr. 784-080; 5000 cells/well) using 8 μl of complete medium/well. Then 4 μl/well of the 3× compound solution, containing a factor 3 dilution series of the compound or DMSO in starving medium, were added to the cells (final DMSO 0.33%). After 16 hours at 37° C., 5% CO2, 95% rel. humidity cells were lysed by adding to the compound mix 4 μl/well of the supplemented lysis buffer (Cis-bio, Phospho-EGFR HTRF kit, 64EG1PEH), followed by incubation for 30 min at room temperature with shaking (400 rpm). Then 4 μl of a mixture of anti-Phospho-EGFR Cryptate and of anti-Phospho-EGFR-d2 antibody solutions prepared in the detection buffer was added. The plates were then incubated for 4 h at room temperature before reading the fluorescence emission at 620 and 665 nm using an Envision reader (Perkin Elmer).
In turn, `O=C(Nc1nccs1)C(c1ncn2c1CCC2)N1Cc2c(F)cc(-c3ccc(N4CCNCC4)cc3)cc2C1=O` (racemic) [Example 3, (2RS)-2-(6,7-Dihydro-5H-pyrrolo[1,2-c]imidazol-1-yl)-2-[4-fluoro-1-oxo-6-(4-piperazin-1-ylphenyl)isoindolin-2-yl]-N-thiazol-2-yl-acetamide] had a half-maximal inhibitory concentration (IC50) of 2 nM.

Regarding `O=C(Nc1nccs1)C(c1ncn2c1CCC2)N1Cc2c(F)cc(-c3ccc(N4CCC(O)CC4)cc3)cc2C1=O` (racemic) [Example 7, (2RS)-2-(6,7-Dihydro-5H-pyrrolo[1,2-c]imidazol-1-yl)-2-[4-fluoro-6-[4-(4-hydroxy-1-piperidyl)phenyl]-1-oxo-isoindolin-2-yl]-N-thiazol-2-yl-acetamide], half-maximal inhibition (IC50) required 1 nM.

For the molecule `CCN1CCN(c2ccc(-c3cc(F)c4c(c3)C(=O)N(C(C(=O)Nc3nccs3)c3ncn5c3CCC5)C4)cn2)CC1` (racemic) [Example 4, (2RS)-2-(6,7-Dihydro-5H-pyrrolo[1,2-c]imidazol-1-yl)-2-[6-[6-(4-ethylpiperazin-1-yl)-3-pyridyl]-4-fluoro-1-oxo-isoindolin-2-yl]-N-thiazol-2-yl-acetamide], the IC50 worked out at 4 nM.

Molecule `CCN1CCN(c2ccc(-c3cc(Cl)c4c(c3)C(=O)N(C(C(=O)Nc3nccs3)c3ncn5c3CCC5)C4)cc2)CC1` (racemic) [Example 6, (2RS)-2-[4-Chloro-6-[4-(4-ethylpiperazin-1-yl)phenyl]-1-oxo-isoindolin-2-yl]-2-(6,7-dihydro-5H-pyrrolo[1,2-c]imidazol-1-yl)-N-thiazol-2-yl-acetamide] had an IC50 of 4 nM.

Turning to `CCN1CCN(c2ccc(-c3cc(F)c4c(c3)C(=O)N(C(C(=O)Nc3nccs3)c3ncn5c3CCC5)C4)cc2)CC1` (racemic) [Example 5, (2RS)-2-(6,7-Dihydro-5H-pyrrolo[1,2-c]imidazol-1-yl)-2-[6-[4-(4-ethylpiperazin-1-yl)phenyl]-4-fluoro-1-oxo-isoindolin-2-yl]-N-thiazol-2-yl-acetamide], half-maximal inhibition (IC50) required 3 nM.

On to `O=C(Nc1nccs1)C(c1ccn2c1CCC2)N1Cc2c(F)cc(C#Cc3ccc(CN4CCC(O)CC4)cc3)cc2C1=O` (racemic) [Example 10, (2RS)-2-(6,7-Dihydro-5H-pyrrolizin-1-yl)-2-[4-fluoro-6-[2-[4-[(4-hydroxy-1-piperidyl)methyl]phenyl]ethynyl]-1-oxo-isoindolin-2-yl]-N-thiazol-2-yl-acetamide], for which the IC50 came to 8 nM.

For the molecule `O=C(Nc1nccs1)C(c1ncn2c1CCC2)N1Cc2c(Cl)cc(-c3ccc(N4CCC(O)CC4)cc3)cc2C1=O` (racemic) [Example 11, (2RS)-2-[4-Chloro-6-[4-(4-hydroxy-1-piperidyl)phenyl]-1-oxo-isoindolin-2-yl]-2-(6,7-dihydro-5H-pyrrolo[1,2-c]imidazol-1-yl)-N-thiazol-2-yl-acetamide], the IC50 came to 2 nM.

`O=C(Nc1nccs1)C(c1ncn2c1CCC2)N1Cc2c(Cl)cc(C#Cc3ccc(CN4CCC(O)CC4)cc3)cc2C1=O` (racemic) [Example 9, (2RS)-2-[4-Chloro-6-[2-[4-[(4-hydroxy-1-piperidyl)methyl]phenyl]ethynyl]-1-oxo-isoindolin-2-yl]-2-(6,7-dihydro-5H-pyrrolo[1,2-c]imidazol-1-yl)-N-thiazol-2-yl-acetamide] showed a half-inhibitory concentration (IC50) of 4 nM.

The molecule `CN1CCN(Cc2ccc(C#Cc3cc(F)c4c(c3)C(=O)N(C(C(=O)Nc3nccs3)c3ncn5c3CCC5)C4)cc2)CC1` (racemic) [Example 1, (2RS)-2-(6,7-Dihydro-5H-pyrrolo[1,2-c]imidazol-1-yl)-2-[4-fluoro-6-[2-[4-[(4-methylpiperazin-1-yl)methyl]phenyl]ethynyl]-1-oxo-isoindolin-2-yl]-N-thiazol-2-yl-acetamide] had an IC50 of 3 nM.

Take `O=C(Nc1nccs1)C(c1ncn2c1CCC2)N1Cc2c(Cl)cc(-c3ccc(N4CCC(O)CC4)nc3)cc2C1=O` (racemic) [Example 8, (2RS)-2-[4-Chloro-6-[6-(4-hydroxy-1-piperidyl)-3-pyridyl]-1-oxo-isoindolin-2-yl]-2-(6,7-dihydro-5H-pyrrolo[1,2-c]imidazol-1-yl)-N-thiazol-2-yl-acetamide]: half-maximal inhibition (IC50) required 2 nM.

In the case of `O=C(Nc1nccs1)C(c1ncn2c1CCC2)N1Cc2c(F)cc(C#Cc3ccc(CN4CCCCC4)cc3)cc2C1=O` (racemic) [Example 14, (2RS)-2-(6,7-Dihydro-5H-pyrrolo[1,2-c]imidazol-1-yl)-2-[4-fluoro-1-oxo-6-[2-[4-(1-piperidylmethyl)phenyl]ethynyl]isoindolin-2-yl]-N-thiazol-2-yl-acetamide], 4 nM corresponded to half-maximal inhibition (IC50).

`O=C(Nc1nccs1)C(c1ncn2c1CCC2)N1Cc2c(F)cc(C#Cc3ccc(CO)cc3)cc2C1=O` (racemic) [Example 12, (2RS)-2-(6,7-Dihydro-5H-pyrrolo[1,2-c]imidazol-1-yl)-2-[4-fluoro-6-[2-[4-(hydroxymethyl)phenyl]ethynyl]-1-oxo-isoindolin-2-yl]-N-thiazol-2-yl-acetamide] had an IC50 of 2 nM.

`O=C(Nc1nccs1)C(c1ncn2c1CCC2)N1Cc2c(F)cc(C#Cc3ccc(CN4CCC(O)CC4)cc3)c(Cl)c2C1=O` (racemic) [Example 13, (2RS)-2-[7-chloro-4-fluoro-6-[2-[4-[(4-hydroxy-1-piperidyl)methyl]phenyl]ethynyl]-1-oxo-isoindolin-2-yl]-2-(6,7-dihydro-5H-pyrrolo[1,2-c]imidazol-1-yl)-N-thiazol-2-yl-acetamide] came in with a concentration for half-maximal inhibition (IC50) of 3 nM.

In the case of `O=C(Nc1nccs1)C(c1ncn2c1CCC2)N1Cc2c(F)cc(C#Cc3ccc(CN4CCC(O)CC4)cc3)cc2C1=O` (racemic) [Example 2, (2RS)-2-(6,7-Dihydro-5H-pyrrolo[1,2-c]imidazol-1-yl)-2-[4-fluoro-6-[2-[4-[(4-hydroxy-1-piperidyl)methyl]phenyl]ethynyl]-1-oxo-isoindolin-2-yl]-N-thiazol-2-yl-acetamide], the midpoint of inhibition, the IC50, lay at 1 nM.
